Measurements published in patent US8658642B2 (Axikin Pharmaceuticals, Inc., priority 2009, dated 2014).

Molecular target: T1, CCR3 (Homo sapiens, UniProt P51677)
T1 sequence (P51677 1-355): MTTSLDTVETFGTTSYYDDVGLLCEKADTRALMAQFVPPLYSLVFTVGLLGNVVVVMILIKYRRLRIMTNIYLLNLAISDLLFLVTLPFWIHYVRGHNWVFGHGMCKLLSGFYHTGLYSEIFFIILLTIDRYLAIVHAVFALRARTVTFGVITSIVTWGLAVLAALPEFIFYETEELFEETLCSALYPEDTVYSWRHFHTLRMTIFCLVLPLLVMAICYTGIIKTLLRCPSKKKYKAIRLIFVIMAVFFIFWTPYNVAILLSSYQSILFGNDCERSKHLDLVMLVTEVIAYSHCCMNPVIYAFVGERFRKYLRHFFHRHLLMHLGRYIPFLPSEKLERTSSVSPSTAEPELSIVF
Assay: CCR3 receptor binding assay ([125I]-labeled human eotaxin/CCL11 displacement on cells)
Conditions: 0.1 nM [125I]-labeled human eotaxin/CCL11, 2×10^5 cells/well, 60 min at room temperature
Method: CCR3 Receptor Binding Assay
Cells were washed once with PBS and resuspended in a binding buffer (25 mM HEPES pH 7.6, 5 mM MgCl2, 1 mM CaCl2, 0.5% BSA, 0.1% NaN3). […] of cell suspension (2×10^5 cells/well) and 0.1 nM [^125I]-labeled human eotaxin/CCL11 (2000 Ci/mmol specific activity) were mixed in a 96-well U-bottom polypropylene plate, and incubated for 60 min at room temperature for the binding reaction. The cell suspension was then transferred to a filtration plate (#MAFB, Millipore), and washed 3 times with the binding buffer containing 0.5 M NaCl, scintillant added, and the radioactivity was counted on a TopCount (Packard). For the determination of non-specific binding, the cell suspension and [^125I]-labeled human eotaxin/CCL11 were incubated in the presence of 500 nM of unlabeled human eotaxin/CCL11. See, lino et al., “Molecular cloning and functional characterization of cynomolgus monkey (Macaca fascicularis) CC chemokine receptor, CCR3,” Cytokine 2002, 19, 276-286.

SMILES | Ki [µM]
N#Cc1ccc(Oc2cc(Cl)cc(Cl)c2)c(S(=O)(=O)N2CCN(C(=O)c3ccco3)CC2)c1 [Compound 122] | > 5
N#Cc1ccc(Oc2cc(Cl)cc(Cl)c2)c(S(=O)(=O)N2CCN(C(=O)c3ccccc3)CC2)c1 [Compound 70, 3-(4-Benzoylpiperazin-1-ylsulfonyl)-4-(3,5-dichlorophenoxy)benzonitrile] | ≤ 0.05
N#Cc1ccc(Sc2cc(Cl)cc(Cl)c2)c(S(=O)(=O)N2CCN(C(=O)c3ccc(C(F)(F)F)cc3)CC2)c1 [Compound 98] | > 5
CCc1ccc(NC(=O)N2CCN(S(=O)(=O)c3cc(C#N)ccc3Oc3cc(C)cc(C)c3)CC2)cc1 [Compound 62, 4-(5-Cyano-2-(3,5-dimethylphenoxy)phenylsulfonyl)-N-(4-ethylphenyl)piperazine-1-carboxamide] | > 5
CC(C)CC(=O)N1CCN(S(=O)(=O)c2cc([N+](=O)[O-])ccc2Sc2cc(Cl)ccc2Cl)CC1 [Compound 152, 1-(4-(2-(2,5-Dichlorophenylthio)-5-nitrophenylsulfonyl)piperazin-1-yl)-3-methylbutan-1-one] | > 5
CSCCCNC(=S)N1CCN(S(=O)(=O)c2cc(C#N)ccc2Oc2cc(Cl)cc(Cl)c2)CC1 [Compound 146] | ≤ 0.05
N#Cc1ccc(Oc2cc(Cl)cc(Cl)c2)c(S(=O)(=O)N2CCN(C(=O)Oc3ccccc3)CC2)c1 [Compound 96] | 0.5 to 5
N#Cc1ccc(Oc2cc(Cl)cc(Cl)c2)c(S(=O)(=O)N2CCN(C(=O)N3CCOCC3)CC2)c1 [Compound 134] | 0.05 to 0.5
CCOC(=O)CCNC(=S)N1CCN(S(=O)(=O)c2cc([N+](=O)[O-])ccc2Sc2cc(Cl)ccc2Cl)CC1 [Compound 198] | ≤ 0.05
O=C(c1ccco1)N1CCN(S(=O)(=O)c2cc([N+](=O)[O-])ccc2Oc2cc(Cl)ccc2Cl)CC1 [Compound 185, (4-(2-(2,5-Dichlorophenoxy)-5-nitrophenylsulfonyl)piperazin-1-yl)(furan-2-yl)methanone] | > 5
O=C(c1ccc(C(F)(F)F)cc1)N1CCN(S(=O)(=O)c2cc([N+](=O)[O-])ccc2Sc2cc(Cl)ccc2Cl)CC1 [Compound 153, (4-(2-(2,5-Dichlorophenylthio)-5-nitrophenylsulfonyl)piperazin-1-yl)(4-(trifluoromethyl)phenyl)methanone] | > 5
CCN(CC)C(=O)N1CCN(S(=O)(=O)c2cc(C#N)ccc2Oc2cc(C)cc(C)c2)CC1 [Compound 120] | > 5
N#Cc1ccc(Oc2cc(Cl)cc(Cl)c2)c(S(=O)(=O)N2CCN(C(=O)c3ccc4nonc4c3)CC2)c1 [Compound 130] | > 5
Cc1cc(C)cc(Oc2ccc(C#N)cc2S(=O)(=O)N2CCN(C(=O)Nc3ccc([N+](=O)[O-])cc3)CC2)c1 [Compound 119] | > 5
N#Cc1ccc(Oc2cc(Cl)cc(Cl)c2)c(S(=O)(=O)N2CCN(C(=O)c3ccccc3Cl)CC2)c1 [Compound 84, 3-(4-(2-Chlorobenzoyl)piperazin-1-ylsulfonyl)-4-(3,5-dichlorophenoxy)benzonitrile] | 0.5 to 5
N#Cc1ccc(Oc2cc(Cl)cc(Cl)c2)c(S(=O)(=O)N2CCN(C(=O)OCCCCCl)CC2)c1 [Compound 158] | > 5
Cc1cc(C)cc(Oc2ccc(C#N)cc2S(=O)(=O)N2CCN(C(=O)C(C)(C)C)CC2)c1 [Compound 63, 4-(3,5-Dimethylphenoxy)-3-(4-pivaloylpiperazin-1-ylsulfonyl)benzonitrile] | > 5
Cc1cc(C)cc(Oc2ccc(C#N)cc2S(=O)(=O)N2CCN(S(C)(=O)=O)CC2)c1 [Compound 52, 4-(3,5-Dimethylphenoxy)-3-(4-(methylsulfonyl)piperazin-1-ylsulfonyl)benzonitrile] | > 5

SMILES | Ki [µM]
N#Cc1ccc(Oc2cc(Cl)cc(Cl)c2)c(S(=O)(=O)N2CCN(C(=O)C3CCCC3)CC2)c1 [Compound 74, 3-(4-(Cyclopentanecarbonyl)piperazin-1-ylsulfonyl)-4-(3,5-dichlorophenoxy)benzonitrile] | > 5
N#Cc1ccc(Oc2cc(Cl)cc(Cl)c2)c(S(=O)(=O)N2CCN(C(=O)c3ccc(F)cc3)CC2)c1 [Compound 87, 4-(3,5-Dichlorophenoxy)-3-(4-(4-fluorobenzoyl)piperazin-1-ylsulfonyl)benzonitrile] | > 5
Cc1cc(C)cc(Oc2ccc(C#N)cc2S(=O)(=O)N2CCN(C(=O)Nc3ccc(C#N)cc3)CC2)c1 [Compound 116] | > 5
Cc1ccc(NC(=O)N2CCN(S(=O)(=O)c3cc(C#N)ccc3Oc3cc(C)cc(C)c3)CC2)cc1 [Compound 115] | > 5
Cc1cccc(C(=O)N2CCN(S(=O)(=O)c3cc(C#N)ccc3Sc3cc(Cl)cc(Cl)c3)CC2)c1 [Compound 105] | > 5
COc1ccc(OC(=O)N2CCN(S(=O)(=O)c3cc(C#N)ccc3Oc3cc(Cl)cc(Cl)c3)CC2)cc1 [Compound 156] | > 5
CCC(=O)N1CCN(S(=O)(=O)c2cc(C#N)ccc2Oc2cc(C)cc(C)c2)CC1 [Compound 57, 4-(3,5-dimethylphenoxy)-3-(4-propionylpiperazin-1-ylsulfonyl)benzonitrile] | 0.5 to 5
Cc1ccc(C(=O)N2CCN(S(=O)(=O)c3cc(C#N)ccc3Sc3cc(Cl)cc(Cl)c3)CC2)cc1 [Compound 104] | > 5
N#Cc1ccc(Oc2cc(Cl)cc(Cl)c2)c(S(=O)(=O)N2CCN(C(=S)Nc3ccccc3)CC2)c1 [Compound 144] | ≤ 0.05
CS(=O)(=O)N1CCN(S(=O)(=O)c2cc(C#N)ccc2Oc2cc(Cl)cc(Cl)c2)CC1 [Compound 76, 4-(3,5-Dichlorophenoxy)-3-(4-(methylsulfonyl)piperazin-1-ylsulfonyl)benzonitrile] | ≤ 0.05
N#Cc1ccc(Oc2cc(Cl)cc(Cl)c2)c(S(=O)(=O)N2CCN(C(=O)c3nc4ccccc4s3)CC2)c1 [Compound 132] | > 5
Cc1cccc(C(=O)N2CCN(S(=O)(=O)c3cc(C#N)ccc3Oc3cc(Cl)cc(Cl)c3)CC2)c1 [Compound 79, 4-(3,5-Dichlorophenoxy)-3-(4-(3-methylbenzoyl)piperazin-1-ylsulfonyl)benzonitrile] | ≤ 0.05
O=C(C1CCCCC1)N1CCN(S(=O)(=O)c2cc([N+](=O)[O-])ccc2Sc2cc(Cl)ccc2Cl)CC1 [Compound 162, Cyclohexyl(4-(2-(2,5-dichlorophenylthio)-5-nitrophenylsulfonyl)piperazin-1-yl)methanone] | > 5
Cc1ccc(S(=O)(=O)N2CCN(S(=O)(=O)c3cc(C#N)ccc3Oc3cc(C)cc(C)c3)CC2)cc1 [Compound 53, 4-(3,5-Dimethylphenoxy)-3-(4-tosylpiperazin-1-ylsulfonyl)benzonitrile] | > 5
N#Cc1ccc(Oc2cc(Cl)cc(Cl)c2)c(S(=O)(=O)N2CCN(C(=S)NCCN3CCOCC3)CC2)c1 [Compound 137] | 0.05 to 0.5
CC(=O)N1CCN(S(=O)(=O)c2cc(C#N)ccc2Sc2cc(Cl)cc(Cl)c2)CC1 [Compound 111] | ≤ 0.05
N#Cc1ccc(Oc2cc(Cl)cc(Cl)c2)c(S(=O)(=O)N2CCN(C(=O)c3cccs3)CC2)c1 [Compound 123] | > 5
O=C(c1ccccc1)N1CCN(S(=O)(=O)c2cc([N+](=O)[O-])ccc2Sc2cc(Cl)ccc2Cl)CC1 [Compound 163, (4-(2-(2,5-Dichlorophenylthio)-5-nitrophenylsulfonyl)piperazin-1-yl)(phenyl)methanone] | > 5
